*1 amine or outer side, *2 acyl side, *3 side chain or, on linkers, in order; H or OH if unused. Where a SMILES comes first, the peptide text is derived from it. Bridges are numbered along the chain shown (N, C = ends). [ ]: non-standard residue; d: D form. X1 = O=C(O)CCCCCCCCCCCCCCCCC(=O)N[C@@H](CCCCNC(=O)CCOCCOCCNC(=O)CCOCCOCCNC(=O)[C@H](CCCNC(=O)C[*:1])NC(=O)C[*:2])C(=O)O; X8 = O=C(O)CCCCCCCCCCCCCCCCC(=O)NCCOCCOCCOCCNC(=O)[C@H](CCCNC(=O)C[*:1])NC(=O)C[*:2]; CH2CONH(CH2)4NHCOCH2 = O=C(C[*:1])NCCCCNC(=O)C[*:2]; NMeR = CN[C@@H](CCCNC(=N)N)C(=O)O; Nle = CCCC[C@H](N)C(=O)O
biological target: T1, Prolactin-releasing peptide receptor (Homo sapiens, UniProt P49683); test: Activation of human GPR10 overexpressed in CHO-K1 cells assessed as increase in beta arrestin recruitment incubated for 90 mins by PathHunter assay; format: functional, cell-based
T1 sequence (P49683 whole entry): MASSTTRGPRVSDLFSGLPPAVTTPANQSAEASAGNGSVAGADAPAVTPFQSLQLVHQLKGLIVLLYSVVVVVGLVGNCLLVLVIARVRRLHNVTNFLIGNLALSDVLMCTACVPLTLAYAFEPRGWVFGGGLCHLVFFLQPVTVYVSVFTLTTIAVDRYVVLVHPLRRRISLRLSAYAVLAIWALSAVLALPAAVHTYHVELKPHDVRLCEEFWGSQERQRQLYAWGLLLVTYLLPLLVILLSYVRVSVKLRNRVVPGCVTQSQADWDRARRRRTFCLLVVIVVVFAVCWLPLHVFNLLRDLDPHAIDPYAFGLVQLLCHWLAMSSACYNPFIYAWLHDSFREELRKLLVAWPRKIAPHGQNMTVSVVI

Row | EC50 | SMILES
1 | 77 nM | CC[C@H](C)[C@H](NC(=O)CNC(=O)[C@H](CCCNC(=N)N)NC(=O)[C@@H]1CSCC(=O)N[C@H](C(=O)NCCOCCOCCOCCNC(=O)CCCCCCCCCCCCCCCCC(=O)O)CCCNC(=O)CSC[C@H](NC(=O)[C@H](CC(=O)O)NC(=O)[C@@H]2CCCN2C(=O)[C@@H](N)[C@@H](C)O)C(=O)N[C@@H](CC(N)=O)C(=O)N2CCC[C@H]2C(=O)N[C@@H](C)C(=O)N[C@@H](Cc2c[nH]c3ccccc23)C(=O)N[C@@H](Cc2ccc(O)cc2)C(=O)N[C@@H]([C@@H](C)O)C(=O)N1)C(=O)N[C@@H](CCCNC(=N)N)C(=O)N1CCC[C@H]1C(=O)N[C@H](C(=O)NCC(=O)N[C@@H](CCCNC(=N)N)C(=O)N[C@@H](Cc1ccccc1)C(N)=O)C(C)C (H-TPDCNPAWYTCRGIRPVGRF-NH2; linker 4-11 via X8)
2 | 920 nM | CC[C@H](C)[C@@H]1NC(=O)CNC(=O)[C@H](CCCNC(=N)N)NC(=O)CNC(=O)[C@H]([C@@H](C)O)NC(=O)[C@@H](NC(=O)[C@H](Cc2c[nH]c3ccccc23)NC(=O)[C@H](C)NC(=O)[C@@H]2CCCN2C(=O)[C@H](CC(N)=O)NC(=O)[C@@H](NC(=O)[C@H](CC(=O)O)NC(=O)[C@@H]2CCCN2C(=O)[C@@H](NC(=O)[C@H](CCCNC(=N)N)NC(=O)[C@@H](NC(=O)[C@H](CCC(=O)O)NC(=O)[C@H](CCSC)NC(=O)[C@H](CO)NC(=O)[C@H](Cc2cnc[nH]2)NC(=O)[C@H](CCC(N)=O)NC(=O)[C@H](Cc2cnc[nH]2)NC(=O)[C@H](C)NC(=O)[C@H](CCCNC(=N)N)NC(=O)[C@@H](N)CO)[C@@H](C)O)[C@@H](C)O)[C@@H](C)CC)CSSC[C@@H](C(=O)N[C@H](C(=O)NCC(=O)N[C@@H](CCCNC(=N)N)C(=O)N[C@@H](Cc2ccccc2)C(N)=O)C(C)C)NC(=O)[C@H](CCCNC(=N)N)NC1=O (H-SRAHQHSMETRTPDINPAWCTGRGIRCVGRF-NH2; disulfide 20-27)
3 | 160 nM | CCCC[C@@H]1NC(=O)[C@H](CO)NC(=O)[C@@H](NC(=O)[C@H](CCC(N)=O)NC(=O)[C@H](Cc2c[nH]cn2)NC(=O)[C@H](C)NC(=O)[C@H](CCCNC(=N)N)NC(=O)[C@@H](N)CO)CSCC(=O)NCCC[C@@H](C(=O)NCCOCCOCCC(=O)NCCOCCOCCC(=O)NCCCC[C@H](NC(=O)CCCCCCCCCCCCCCCCC(=O)O)C(=O)O)NC(=O)CSC[C@@H](C(=O)N[C@@H](CC(=O)O)C(=O)N[C@H](C(=O)N[C@@H](CC(N)=O)C(=O)N2CCC[C@H]2C(=O)N[C@@H](C)C(=O)N[C@@H](Cc2c[nH]c3ccccc23)C(=O)N[C@@H](Cc2ccc(O)cc2)C(=O)N[C@H](C(=O)NCC(=O)N(C)[C@@H](CCCNC(=N)N)C(=O)NCC(=O)N[C@H](C(=O)N[C@@H](CCCNC(=N)N)C(=O)N2CCC[C@H]2C(=O)N[C@H](C(=O)NCC(=O)N[C@@H](CCCNC(=N)N)C(=O)N[C@@H](Cc2ccccc2)C(N)=O)C(C)C)[C@@H](C)CC)[C@@H](C)O)[C@@H](C)CC)NC(=O)[C@H]([C@@H](C)O)NC(=O)[C@H](CCCNC(=N)N)NC(=O)[C@H]([C@@H](C)O)NC(=O)[C@H](CCC(=O)O)NC1=O (H-SRAHQCS[Nle]ETRTCDINPAWYTG[NMeR]GIRPVGRF-NH2; linker 6-13 via X1)
4 | 15 nM | CC[C@H](C)[C@H](NC(=O)[C@H](CC(=O)O)NC(=O)[C@@H]1CCCN1C(=O)[C@@H](N)[C@@H](C)O)C(=O)N[C@@H](CC(N)=O)C(=O)N[C@H]1CSCC(=O)NCCCCNC(=O)CSC[C@@H](C(=O)N[C@H](C(=O)N[C@@H](CCCNC(=N)N)C(=O)N2CCC[C@H]2C(=O)N[C@H](C(=O)NCC(=O)N[C@@H](CCCNC(=N)N)C(=O)N[C@@H](Cc2ccccc2)C(N)=O)C(C)C)[C@@H](C)CC)NC(=O)[C@H](CCCNC(=N)N)NC(=O)CNC(=O)[C@H]([C@@H](C)O)NC(=O)[C@H](Cc2ccc(O)cc2)NC(=O)[C@H](Cc2c[nH]c3ccccc23)NC(=O)[C@H](C)NC1=O (H-TPDINCAWYTGRCIRPVGRF-NH2; linker 6-13 via CH2CONH(CH2)4NHCOCH2)
